US20230144855A1, “METHODS AND COMPOSITIONS FOR INDUCING FETAL HEMOGLOBIN” (Flagship Pioneering Innovations VI, LLC, priority 2021, published 2023)
Entries after “also recorded” stand apart in the source; their conditions may differ.

Legend:
Assay type in all cases: cell-based, human
[1] = tested on: CD34+ hematopoietic stem and progenitor cells (HSPCs); assay: Flow cytometry assay of percentage of HbF expressing cells (F-cells) after in vitro erythroid differentiation
Experimental: (§1) Briefly, mobilized peripheral blood (mPB), or bone marrow (BM) derived CD34+ hematopoietic stem and progenitor cells (HSPCs) were thawed and cultured in Hematopoietic stem cell expansion media (Table 7) from Day −4 to Day 0 following by 3-stage in vitro erythroid differentiation (Table 8). Specifically, cells were cultured in erythroid expansion media (phase 1) from Day 0-6, followed by differentiation media (phase 2) between Day 7-10, and culminating with incubation in erythroid maturation media (phase 3) from Day 10-18. Perturbagens reconstituted in DMSO (or appropriate solvent) were added starting at day −2 (corresponding to a stage of CD34+ hematopoietic progenitors). […] As part of the analysis, the expansion (fold growth), viability, and erythroid maturation was measured throughout the course of differentiation. Early erythroid induction was determined by flow cytometry using a six-antibody panel (CD34, CD38, CD36, CD71, CD41, CD235a) (Table 9). Similarly, late erythroid maturation was determined by flow cytometry using a four-antibody panel (Table 10) (CD71, CD235a, CD233, CD49d) tracking increased CD233 expression, with a concomitant loss of CD49d expression, and a shift in CD71^Hi to CD71^low erythroid population (CD235a+) over 18 days (FIG. 2). […]

[2] = tested on: CD34+ hematopoietic stem and progenitor cells (HSPCs); assay: Percentage HbF by HPLC / ion-exchange chromatography in in vitro derived erythrocytes; conditions: Day 14; HU 50 μM, Perturbagen 1081 0.1 μM; n=4-5
Experimental: as §1

[3] = tested on: mPB CD34+ cells; assay: scRNA-seq of CD34+ cells treated with HbF inducers (trajectories, gene signatures); conditions: for Pseudo-trajectory associated with high levels of HBG1/HBG2 expression: Leiden clustering / gene module analysis of HbF inducers
Experimental: To understand the mechanism/cell behavior driving fetal hemoglobin induction, a number of known HbF inducers were evaluated and their signature was elucidated by scRNA-seq. In brief, mPB CD34+ cells were thawed, cultured and treated with selected HbF inducers (Table 11) as described in Example 2 and subjected to single cell gene expression profiling (GEP) at 5 time points capturing the induction of erythroid differentiation from a hematopoietic stem cell progenitor. For sequencing, 10,000 cells (1000 cells/perturbation) were loaded into a single channel of a Chromium Next GEM Chip G and partitioned into droplets with gel beads using a Chromium controller per time point. After emulsion droplets were formed and collected, reverse transcription reactions were incubated at 53° C. for 45 min.
A dimensionality-reduced representation of the count matrix was embedded using UMAP, clustered using Leiden clustering and annotated using differential expression testing (Wilcoxon test) and comparisons to established marker genes. […] Based on these two trajectories, distinct signatures were generated for each transition and a list predictions were made towards each cell state.
Based on the unique/novel cell state (CD34+/CD41^Low+/CD235a+) induced by HU treatment of human hematopoietic stem cell progenitors Applicant postulated that this cell state was reminiscent/analogous to a stress erythropoiesis cell state previously defined in mice but not well characterized in human. […] To evaluate whether HU was inducing a stress erythropoiesis cells state and whether this cell state was responsive to glucocorticoids, the effect of dexamethasone (Dex) was evaluated in the context of HU treatment.
Perturbagen 1081 induced predicted gene signature associated with fetal hemoglobin induction. […] Adult human CD34+ progenitors were treated with Perturbagen 1081 and other known HbF inducers and subjected to scRNA-seq. […] Analysis of Perturbagen 1081 induced gene signature validated the fetal erythropoiesis signature predicted using a computational predictive models (FIG. 16C).

[4] = tested on: CD34+ HSPCs; assay: Flow cytometry of the CD34+/CD41Low+/CD235a+ cell state; conditions: HU 50 uM, day 3 mPB CD34+
Experimental: Therefore, in this example, CD34+ HSPCs are cultured 4 days in stem cell maintenance media (days −4 through 0) then switched to the three phases of erythroid differentiation media. Phase 1, erythroid expansion media (days 0 through 6), Phase 2 erythroid differentiation media (days 7 through 10) and Phase 3 erythroid maturation media (days 10 through 18).

NC(=O)NO [HU, hydroxyurea]
Number of F-cells with HU treatment ([1]; HU 50 uM on CD34+ HSPCs before erythroid differentiation): increased number of F-cells
HbF induced, HPLC analysis of in vitro derived erythrocytes [2]: 17.16%+4.78
Pseudo-trajectory associated with high levels of HBG1/HBG2 expression [3]: HU-HbF trajectory
Expression of the glucocorticoid receptor (NR3C1) ([3]; scRNA-seq of HU and HU+Dex conditions): increases the expression of the glucocorticoid receptor (NR3C1); also recorded: induction of NR3C1
CD34+/CD41Low+/CD235a+ cell state [4]: a novel cell state defined by CD34+/CD41^Low+/CD235a+(FIG. 6A) was observed; also recorded: emergence of a cell population defined by CD34+CD41lowCD235a+ expression

Cc1ccc2c(NC[C@](O)(CC(C)(C)c3cc(F)cc4c3OCC4)C(F)(F)F)cccc2n1 [Mapracorat]
F-cell data, glucocorticoid agonist combined with HU (absolute change, fold change) ([1]; combination with HU): synergy with HU

Nc1cccc2c1C(=O)N(C1CCC(=O)NC1=O)C2=O (stereo not shown) [Pomalidomine]
Pseudo-trajectory associated with high levels of HBG1/HBG2 expression [3]: canonical-HbF trajectory
